Source: patent US20230097580A1, “COMPOSITIONS AND METHODS FOR STIMULATING HAIR GROWTH” (Amplifica, Inc., priority 2020, published 2023)
Where two headings read alike, the source gives them in different places.

Test system: dorsal skin of P53 mice
Conditions: for hair growth induction: summary of figures; for induction (of anagen / hair growth): 25, 50, 100 µg/mL injections, overall, two mice; for hair growth in injection spot: 3 µL on 3 consecutive days, 18 days after injection; for pigmentation at injection site: at P14
From the text: Follow up experiments included lower HA concentrations (below 250 .mu·g/mL). A small incision was done using a thin needle (insulin syringe) to facilitate injection. […] In FIGS. 5-8, when looking at the back of the mouse with the mouse's head at the top, the control (1% BSA) injection is top left, the 25 .mu·g/ml injection is top right, the 100 .mu·g/ml injection is bottom right, and the 50 .mu·g/ml injection is bottom left.
FIGS. 5 and 6 show representative images of two mice, each of which received injections of low molecular weight HA. FIGS. 7 and 8 show representative images of two mice, each of which received injections of high molecular weight HA.
For high molecular weight the injection site was monitored for 18 days for full anagen.

Substance	hair growth induction (50 µg/mL)	hair growth induction (100 µg/mL)	induction (of anagen / hair growth)	hair growth in injection spot (FIG. 7 mouse, 50 µg/ml)	hair growth in injection spot (FIG. 7 mouse, 100 µg/ml)	hair growth in injection spot (FIG. 8 mouse, 25 µg/ml)	hair growth in injection spot (FIG. 8 mouse, 50 µg/ml)	pigmentation at injection site	anagen spot at injection site (25 µg/mL, mouse 2 (FIG. 6), only in one mouse)	hair growth in injection spot (FIG. 5 mouse, 25 µg/ml)	hair growth in injection spot (FIG. 5 mouse, 100 µg/ml)	hair growth in injection spot (FIG. 6 mouse, 25 µg/ml)	hair growth in injection spot (FIG. 6 mouse, 100 µg/ml)
hyaluronic acid [high molecular weight HA]	induces	induces	good induction	growth	growth	growth	growth	apparent					
hyaluronic acid [intermediate weight HA]			no induction										
hyaluronic acid [low molecular weight HA]		induced hair growth	good induction					apparent	nice anagen spot	growth	growth	growth	growth
